Results taken from ChEMBL document CHEMBL5131528, “2-Aminoquinazolines as LRRK2 Inhibitors for Treating Parkinson's Disease” (ACS Med Chem Lett, 2022).

Each compound was assayed against Leucine-rich repeat serine/threonine-protein kinase 2 (Homo sapiens, UniProt Q5S007, G2019S) (assay: Inhibition of GST-tagged truncated human LRRK2 G2019S mutant using fluorescein labeled LRRKtide peptide as substrate preincubated for 15 mins followed by substrate addition and measured after 90 mins in presence of ATP at Km concentration by TR-FRET Lanthascreen assay).
Chain of Leucine-rich repeat serine/threonine-protein kinase 2 (Q5S007 whole entry G2019S, the tested form may be a part): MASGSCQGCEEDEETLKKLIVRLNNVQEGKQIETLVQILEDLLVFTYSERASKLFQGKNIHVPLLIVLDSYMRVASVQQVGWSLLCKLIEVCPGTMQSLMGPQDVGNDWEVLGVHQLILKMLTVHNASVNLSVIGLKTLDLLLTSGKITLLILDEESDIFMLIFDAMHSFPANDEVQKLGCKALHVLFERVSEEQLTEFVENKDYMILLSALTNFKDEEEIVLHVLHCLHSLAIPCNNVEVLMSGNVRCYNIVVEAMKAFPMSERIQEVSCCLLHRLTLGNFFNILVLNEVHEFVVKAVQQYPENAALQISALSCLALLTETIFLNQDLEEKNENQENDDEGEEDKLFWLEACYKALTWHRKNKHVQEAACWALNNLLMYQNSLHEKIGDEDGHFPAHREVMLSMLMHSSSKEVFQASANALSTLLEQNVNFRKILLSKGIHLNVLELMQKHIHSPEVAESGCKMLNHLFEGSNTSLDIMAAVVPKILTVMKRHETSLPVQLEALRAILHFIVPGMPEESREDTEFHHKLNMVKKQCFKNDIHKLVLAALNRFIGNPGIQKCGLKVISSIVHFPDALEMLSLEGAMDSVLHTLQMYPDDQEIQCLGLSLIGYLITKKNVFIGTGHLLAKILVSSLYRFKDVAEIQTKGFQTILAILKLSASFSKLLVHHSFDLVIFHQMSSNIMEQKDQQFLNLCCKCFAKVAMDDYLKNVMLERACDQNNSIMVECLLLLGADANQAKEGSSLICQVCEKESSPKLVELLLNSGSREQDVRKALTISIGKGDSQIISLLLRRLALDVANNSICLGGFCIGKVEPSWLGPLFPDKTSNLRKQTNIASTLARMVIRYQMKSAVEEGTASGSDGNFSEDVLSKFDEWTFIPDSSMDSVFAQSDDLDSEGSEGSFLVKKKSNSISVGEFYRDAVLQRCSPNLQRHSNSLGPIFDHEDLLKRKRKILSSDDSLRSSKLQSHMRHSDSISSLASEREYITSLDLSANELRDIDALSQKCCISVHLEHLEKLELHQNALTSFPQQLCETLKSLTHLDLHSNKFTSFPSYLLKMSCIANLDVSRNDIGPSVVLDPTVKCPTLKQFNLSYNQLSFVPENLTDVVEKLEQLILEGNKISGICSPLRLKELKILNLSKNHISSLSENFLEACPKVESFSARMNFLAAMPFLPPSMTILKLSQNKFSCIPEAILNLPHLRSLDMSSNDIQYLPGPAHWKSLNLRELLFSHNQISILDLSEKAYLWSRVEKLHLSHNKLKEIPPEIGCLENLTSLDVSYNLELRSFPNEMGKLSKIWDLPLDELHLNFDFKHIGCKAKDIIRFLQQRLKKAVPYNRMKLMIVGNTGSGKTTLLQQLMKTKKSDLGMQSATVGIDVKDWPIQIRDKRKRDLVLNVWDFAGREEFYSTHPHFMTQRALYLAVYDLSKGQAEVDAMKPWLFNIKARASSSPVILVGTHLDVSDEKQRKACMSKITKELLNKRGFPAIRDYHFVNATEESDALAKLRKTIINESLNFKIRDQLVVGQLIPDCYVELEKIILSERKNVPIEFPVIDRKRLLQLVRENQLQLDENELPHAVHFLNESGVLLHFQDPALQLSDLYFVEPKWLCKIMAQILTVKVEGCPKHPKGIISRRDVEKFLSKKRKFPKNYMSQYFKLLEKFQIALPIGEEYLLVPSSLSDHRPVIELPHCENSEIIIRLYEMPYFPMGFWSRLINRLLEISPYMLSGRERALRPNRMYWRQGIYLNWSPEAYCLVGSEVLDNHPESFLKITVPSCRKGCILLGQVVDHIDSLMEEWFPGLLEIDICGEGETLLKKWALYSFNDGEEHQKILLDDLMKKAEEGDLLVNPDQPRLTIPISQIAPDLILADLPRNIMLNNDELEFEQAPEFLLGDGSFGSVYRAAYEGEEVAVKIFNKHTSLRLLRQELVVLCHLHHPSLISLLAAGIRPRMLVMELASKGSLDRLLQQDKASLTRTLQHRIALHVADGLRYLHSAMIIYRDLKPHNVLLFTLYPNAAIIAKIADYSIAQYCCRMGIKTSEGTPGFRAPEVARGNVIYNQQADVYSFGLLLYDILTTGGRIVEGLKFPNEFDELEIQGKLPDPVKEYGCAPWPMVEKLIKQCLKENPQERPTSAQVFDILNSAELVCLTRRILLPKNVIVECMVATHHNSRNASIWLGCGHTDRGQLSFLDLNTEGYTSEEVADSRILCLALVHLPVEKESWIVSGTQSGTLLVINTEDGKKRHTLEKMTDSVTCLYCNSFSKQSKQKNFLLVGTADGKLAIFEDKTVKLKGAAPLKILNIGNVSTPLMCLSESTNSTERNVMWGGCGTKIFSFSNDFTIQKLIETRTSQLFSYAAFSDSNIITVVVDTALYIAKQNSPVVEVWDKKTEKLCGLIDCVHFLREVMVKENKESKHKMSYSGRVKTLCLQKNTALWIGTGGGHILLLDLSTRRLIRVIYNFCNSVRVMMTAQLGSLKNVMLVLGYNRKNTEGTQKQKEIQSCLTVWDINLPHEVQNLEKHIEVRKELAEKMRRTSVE

Compound	IC50 [pM]
Clc1cc2cnc(Nc3cnn(C45CC(C4)C5)c3Cl)nc2cc1N1CCC2(CCCO2)CC1	174
CC(C)(C)Cn1cc(Nc2ncc3cc(Cl)c(N4CCC(C5(C)COC5)CC4)cc3n2)cn1	187
Cc1c(Nc2ncc3cc(Cl)c(N4C(=O)OC[C@H]4C)cc3n2)cnn1C1CCOCC1	451

Now those with a lower IC50, led by results:

IC50 [pM]	Compound
169	CC1(O)CCN(c2cc3nc(Nc4cnn(C5CC5)c4Cl)ncc3cc2Cl)C1 (stereo unspecified)
75.9	CC(C)(O)CN1CCN(c2cc3nc(Nc4cnn(C5CC5)c4Cl)ncc3cc2Cl)CC1
64.6	CC1NN=CC1Nc1ncc2cc(Cl)c(N3CCC(C)(O)C(C)C3)cc2n1 (stereo unspecified)
